Assay results as given in PMC4503439, “Dose-Independent ADME Properties and Tentative Identification of Metabolites of α-Mangostin from Garcinia mangostana in Mice by Automated Microsampling and UPLC-MS/MS Methods” (PLoS ONE, 2015).
“Also recorded” adds a separate entry of the source. Where two headings read alike, the source gives them in different places.

How the values were obtained:
P-glycoprotein = target: T1, P-glycoprotein (Homo sapiens, UniProt P08183); experiment: P-glycoprotein substrate test in MDCK-mdr1 cell line; type: in vitro ADME; conditions: our unpublished data
T1 construct: expressed in transfected cells; host or cells: MDCK-mdr1 (canine kidney cells carrying an mdr1 transgene; transfection is inferred from the cell line name)

[1] = Metabolism of α-MG in in vitro S9 fractions of other tissues; type: in vitro ADME, mice; conditions: other tissues studied, spiked 1 and 20 μg/mL
Description: (§1) The procedures for using S9 fractions from various tissues were similar those already reported. Each liver, stomach, small intestine, large intestine, lung, heart, kidney, fat, mesentery, muscle, and brain was excised after cervical dislocation (n = 6). Each tissue sample was rinsed with cold 0.9% NaCl-injectable solution, blotted dry with tissue paper and weighed. Then each tissue was homogenized with a volume of 0.25 M sucrose at 4 times of each tissue. Metabolic activity was initiated by adding a 100 μL aliquot of the 9000 × g supernatant fraction (S9) of each tissue to a 135 μL of Tris-buffer (pH 7.4), 5 μL of 0.9% NaCl-injectable solution with 1 or 20 μg/mL α-MG as a final concentration, 5 μL (1 mM) of NADPH and 5 μL (3.3 mM) of UDPGA. A 250 μL aliquot of acetonitrile (containing 1 μg/mL of the IS) was added after a 30 min incubation in a thermomixer (37°C and 500 opm) to terminate the enzyme activity. The amount of remaining α-MG in the S9 fraction of each tissue was determined using the HPLC-MS/MS analytical method.

[2] = Stability of α-MG in various buffer solutions; type: physicochemical; conditions: pHs ranging from 2 to 13; unpublished data
[3] = Tissue distribution of α-MG (tissue-to-plasma ratios) after intravenous and oral administration; type: in vivo, mice
Experimental: The surgical procedures and administration of α-MG were conducted according to a previously reported method, [12], [31]. At 30 and 180 min after intravenous and oral administration of α-MG at doses of 10 mg/kg, as much blood as possible was collected via the carotid artery and each mouse was then sacrificed by cervical dislocation. Each liver, spleen, stomach, small intestine, large intestine, mesentery, kidney, fat, muscle, heart, lung, and brain was excised, weighted and homogenized with a volume of distilled water at 4 times the each organ. After centrifugation for 10 min, the supernatant was collected and all samples stored at –80°C until required.

[4] = Pharmacokinetics of α-MG after intravenous administration to mice (automated microsampling); type: in vivo; conditions: for CL renal / MRT / clearance / AUC / half-life / Vd: mouse, plasma; for half-life: read-out: Terminal half-life; for Vd: read-out: V ss
Experimental: The surgical procedures were conducted under intramuscular injection anesthesia with 125 mg (1.5 mL)/kg of tiletamine HCl and zolazepam HCl mixture. The carotid artery (for intravenous and oral studies) and the jugular vein (for intravenous study) were cannulated using CX-2052S and CX-2022S catheters (BASi, West Lafayette, IN), respectively. After the mice awoke from anesthesia, the administration of α-MG and blood sampling were performed, [12], [31].
In intravenous study, α-MG (dissolved in PEG 400: distilled water = 6:4, v/v) at doses of 5, 10 and 20 mg (5 mL)/kg was administered through the jugular vein. The micro-sampling system (Culex BASi, West Lafayette, IN) was programmed to collect a 10 μL sample of blood into a micro-vial containing 50 μL of 12.5 units/mL heparinized saline. Blood loss due to blood sampling was replaced with equal volumes of heparinized saline. Blood samples were collected at 0, 1, 5, 15, 30, 60, 90, 120, 180, 240, 300 and 360 min after intravenous administration of the α-MG with virtually no blood loss. After centrifugation of each micro-vial, 50 μL of supernatant was collected. At the end of 24 h, each metabolic cage was rinsed with 5 mL of distilled water and the resulting fluid combined with the urine collected over the previous 24 h. At this time, each mouse was sacrificed by cervical dislocation, and then the entire gastrointestinal tract (including its contents and feces) was removed, transferred into a beaker that contained 10 mL of methanol (to facilitate the extraction of α-MG) and the gastrointestinal tract was cut into small pieces. After manual shaking and stirring, a 50 μL aliquot of the supernatant was collected from each beaker and stored.
The analytical method for measuring α-MG was modified from a previous report. In sample preparation, 100 μL of acetonitrile containing 1 μg/mL IS was added to 50 μL of aliquot of the sample. After vortex-mixing and centrifugation (15000 × g for 10 min), 10 μL of the supernatant was directly injected into a reversed-phase C18 column (Cadenza CD-C18, 2 mm × 75 mm i.d., 3-μm particle size; Imtakt, USA) kept at 4°C until injection. The analytes were monitored using a API4000 triple quadrupole mass spectrometer (AB Sciex, Foster City, CA) equipped with a turbo ion-spray interface for electrospray ionization and operated in positive ion mode at 5500 V and 500°C at 50 L/min of nebulizing gas flow, 50 L/min of turbo ion-spray gas flow, 20 L/min of curtain gas flow, 5500 V of ring voltage and 5 Torr of collision gas (nitrogen) pressure.
Standard methods were used to calculate the following pharmacokinetic parameters using a non-compartmental analysis (WinNonlin 2.1; Pharmasight Corp., Mountain View, CA). The extent of absolute oral bioavailability (F) was calculated by dividing the AUCoral/AUCiv at the same dose. The peak plasma concentration (C max) and time to reach C max (T max) were read directly from the […] data.

[5] = Metabolism of α-MG in in vitro S9 fraction of small intestine; type: in vitro ADME, mice; conditions: 30 min incubation, NADPH and UDPGA
Description: as §1

[6] = intravenous, doses of 5, 10 and 20 mg/kg

T1 sequence (P08183 whole entry): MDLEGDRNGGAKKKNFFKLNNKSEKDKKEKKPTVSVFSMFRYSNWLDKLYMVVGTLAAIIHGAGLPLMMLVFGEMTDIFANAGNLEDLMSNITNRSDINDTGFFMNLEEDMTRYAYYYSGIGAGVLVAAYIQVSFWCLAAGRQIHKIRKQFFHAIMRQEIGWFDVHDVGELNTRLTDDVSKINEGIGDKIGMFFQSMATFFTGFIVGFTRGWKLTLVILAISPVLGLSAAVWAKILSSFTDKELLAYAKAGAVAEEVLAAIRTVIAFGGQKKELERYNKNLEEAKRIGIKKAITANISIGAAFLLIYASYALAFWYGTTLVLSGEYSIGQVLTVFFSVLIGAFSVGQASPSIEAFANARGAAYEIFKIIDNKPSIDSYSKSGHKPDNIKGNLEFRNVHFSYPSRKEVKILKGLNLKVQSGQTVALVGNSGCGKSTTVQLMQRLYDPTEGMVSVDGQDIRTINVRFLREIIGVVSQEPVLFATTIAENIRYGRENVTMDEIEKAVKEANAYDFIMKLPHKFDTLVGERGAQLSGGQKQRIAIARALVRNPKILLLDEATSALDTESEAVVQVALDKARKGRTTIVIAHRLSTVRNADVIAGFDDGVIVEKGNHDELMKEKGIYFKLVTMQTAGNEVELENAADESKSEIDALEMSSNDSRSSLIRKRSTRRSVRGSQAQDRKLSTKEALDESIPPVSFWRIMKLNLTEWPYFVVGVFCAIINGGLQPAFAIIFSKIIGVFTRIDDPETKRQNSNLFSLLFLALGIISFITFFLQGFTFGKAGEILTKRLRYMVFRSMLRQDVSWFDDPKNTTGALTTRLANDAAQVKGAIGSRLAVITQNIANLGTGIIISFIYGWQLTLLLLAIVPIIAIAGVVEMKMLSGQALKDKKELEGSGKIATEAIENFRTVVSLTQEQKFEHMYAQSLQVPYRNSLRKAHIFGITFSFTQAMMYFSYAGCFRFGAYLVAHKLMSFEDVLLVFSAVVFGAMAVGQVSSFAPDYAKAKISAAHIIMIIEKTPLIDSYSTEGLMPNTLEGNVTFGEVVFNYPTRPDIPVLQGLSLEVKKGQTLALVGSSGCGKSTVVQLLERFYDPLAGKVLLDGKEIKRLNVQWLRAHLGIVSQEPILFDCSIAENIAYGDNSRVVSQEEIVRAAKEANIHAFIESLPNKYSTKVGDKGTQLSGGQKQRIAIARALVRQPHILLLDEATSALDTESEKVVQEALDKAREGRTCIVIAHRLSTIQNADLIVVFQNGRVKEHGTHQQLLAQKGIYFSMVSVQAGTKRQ

## COc1c(O)cc2oc3cc(O)c(CC=C(C)C)c(O)c3c(=O)c2c1CC=C(C)C [α-MG, α-Mangostin]
P-glycoprotein
  substrate of P-glycoprotein: substrate of P-glycoprotein
[1]
  metabolic activity in S9 fractions: almost negligible metabolic activities
[2]
  stability in various buffer solutions: stable
[3]; intravenous 10 mg/kg, kidney, at 30 min
  tissue-to-plasma (T/P) ratio: greater than unity
[3]; intravenous 10 mg/kg, large intestine and fat, at 180 min
  tissue-to-plasma (T/P) ratio: greater than unity
[3]; intravenous 10 mg/kg, liver, small intestine and lung, at 30 and 180 min
  tissue-to-plasma (T/P) ratio: greater than unity
[3]; oral 10 mg/kg, all tissues studied except the brain, at 30 and 180 min, 10 mg/kg
  tissue-to-plasma (T/P) ratio: greater than unity; also recorded: above unity
[4]; estimated from CLR and unbound fraction
  CLR, fu (CLR based on free fraction in plasma): 1.72 to 3.44 mL/min/kg
[4]; intravenous, 5 mg/kg
  Ae 0–24 h (excreted in the urine as unchanged α-MG): 0.839 ± 0.525 % of dose
  CLNR: 31.1 ± 7.14 mL/min/kg
  GI 24 h (remaining in the gastrointestinal tract at 24 h as unchanged α-MG): 3.44 ± 1.16 % of dose
  CL renal: 0.283 ± 0.194 mL/min/kg
  MRT: 2.42 h
  clearance: 31.4 ± 7.28 mL/min/kg
  half-life: 3.77 ± 0.572 h
  Vd: 4.3 ± 1.01 L/kg
[4]; intravenous, 10 mg/kg
  Ae 0–24 h (excreted in the urine as unchanged α-MG): 0.592 ± 0.394 % of dose
  CLNR: 31.1 ± 7.83 mL/min/kg
  GI 24 h (remaining in the gastrointestinal tract at 24 h as unchanged α-MG): 2.28 ± 1.96 % of dose
  CL renal: 0.205 ± 0.15 mL/min/kg
  MRT: 2.67 h
  clearance: 31.3 ± 7.95 mL/min/kg
  half-life: 3.65 ± 1.23 h
  Vd: 4.27 ± 1.97 L/kg
[4]; intravenous, 20 mg/kg
  Ae 0–24 h (excreted in the urine as unchanged α-MG): 0.403 ± 0.163 % of dose
  CLNR: 34.6 ± 12.3 mL/min/kg
  GI 24 h (remaining in the gastrointestinal tract at 24 h as unchanged α-MG): 3.42 ± 1.73 % of dose
  CL renal: 0.141 ± 0.0801 mL/min/kg
  MRT: 2.4 h
  clearance: 34.7 ± 12.4 mL/min/kg
  half-life: 2.88 ± 1.2 h
  Vd: 4.5 ± 1.38 L/kg
[4]; [6]
  Ae 0–24 h: less than 0.839 % of the intravenous dose
  GI 24 h: less than 3.44 % of the doses
[4]; intravenous, 5 mg/kg (n = 9)
  AUC: 2820 ng·h/mL
[4]; intravenous, 10 mg/kg (n = 8)
  AUC: 5670 ng·h/mL
[4]; intravenous, 20 mg/kg (n = 8)
  AUC: 10600 ng·h/mL
[4]; intravenous, range over doses (Table 1)
  clearance: 31.3 to 34.7 mL/min/kg
[5]; small intestine S9, 1 μg/mL
  disappearance of spiked α-MG: 34.8%
[5]; small intestine S9, 20 μg/mL
  disappearance of spiked α-MG: 36.2%
